Converted amounts (≈) assume the structure as drawn.
Key:
[1] = Solubility assay; format: physicochemical; conditions: aqueous buffer, kinetic from dmso stock; 0.067 M phosphate buffer pH 6.5, 24 hours shaking, from 10 mM DMSO stock
Protocol: After centrifugation, the supernatant was analyzed by HPLC-UV. The solubility was defined as the concentration of the test substance in the selected solvent. It was determined by correlation with an external standard calibration curve.

[2] = Human liver microsome (HLM) clearance assay; format: in vitro ADME; conditions: human liver microsomes 0.5 mg/mL, NADPH 1 mM, 0.5 μM compound, 40 min
Protocol: Example 63: Human Liver Microsome (HLM) Clearance Assay
Samples were taken out before addition of NADPH, and at 5, 10, 20 and 40 minutes thereafter and protein precipitation using cold acetonitrile with added internal standard was performed prior to centrifugation and sample analysis using compound specific LCMS/MS methods. Control incubations in buffer and without NADPH were performed in the same manner. Compound depletion was determined and apparent clearance (CLapp) was calculated.

CCc1c(-c2ccc(NC(=O)[C@@H](NC(=O)c3ccnn3C(C)C)C(C3CC3)C3CC3)nc2F)ccc[n+]1[O-] [Example 5, N-[(1S)-1-(dicyclopropylmethyl)-2-[[5-(2-ethyl-1-oxido-pyridin-1-ium-3-yl)-6-fluoro-2-pyridyl]amino]-2-oxo-ethyl]-2-isopropyl-pyrazole-3-carboxamide]
solubility at 24 h [1]: 35 µg/mL (≈ 67.2 µM) | HLM Clapp [2]: <8 mL/min/kg

Cc1cc(-c2ccc(NC(=O)[C@@H](NC(=O)c3cnnn3C(C)C)C(C3CC3)C3CC3)nc2F)c(C)[n+]([O-])c1 [Example 23, N-[(1S)-1-(dicyclopropylmethyl)-2-[[5-(2,5-dimethyl-1-oxido-pyridin-1-ium-3-yl)-6-fluoro-2-pyridyl]amino]-2-oxo-ethyl]-3-isopropyl-triazole-4-carboxamide]
HLM Clapp [2]: <8 mL/min/kg

Cc1cc[n+]([O-])cc1-c1ccc(NC(=O)[C@@H](NC(=O)c2ccnn2C(C)C)C(C2CC2)C2CC2)nc1F [Example 15, N-[(1S)-1-(dicyclopropylmethyl)-2-[[6-fluoro-5-(4-methyl-1-oxido-pyridin-1-ium-3-yl)-2-pyridyl]amino]-2-oxo-ethyl]-2-isopropyl-pyrazole-3-carboxamide]
solubility at 24 h [1]: 97 µg/mL (≈ 191 µM) | HLM Clapp [2]: <8 mL/min/kg

Cc1c(-c2ccc(NC(=O)[C@@H](NC(=O)c3ccnn3C(C)C)C(C3CC3)C3CC3)nc2F)cc(C(F)(F)F)c[n+]1[O-] [Example 12, N-[(1S)-1-(dicyclopropylmethyl)-2-[[6-fluoro-5-[2-methyl-1-oxido-5-(trifluoromethyl)pyridin-1-ium-3-yl]-2-pyridyl]amino]-2-oxo-ethyl]-2-isopropyl-pyrazole-3-carboxamide]
solubility at 24 h [1]: 6 µg/mL (≈ 10.4 µM) | HLM Clapp [2]: <8 mL/min/kg

Cc1cc(-c2ccc(NC(=O)[C@@H](NC(=O)c3conc3C(C)C)C(C3CC3)C3CC3)nc2F)c(C)[n+]([O-])c1 [Example 22, N-[(1S)-1-(dicyclopropylmethyl)-2-[[5-(2,5-dimethyl-1-oxido-pyridin-1-ium-3-yl)-6-fluoro-2-pyridyl]amino]-2-oxo-ethyl]-3-isopropyl-isoxazole-4-carboxamide]
solubility at 24 h [1]: 28 µg/mL (≈ 53.7 µM) | HLM Clapp [2]: 73 mL/min/kg

Cc1c(-c2ccc(NC(=O)[C@@H](NC(=O)c3ccnn3C(C)C)C(C3CC3)C3CC3)nc2F)c[n+]([O-])cc1C(F)F [Example 48, N-[(1S)-1-(dicyclopropylmethyl)-2-[[5-[5-(difluoromethyl)-4-methyl-1-oxido-pyridin-1-ium-3-yl]-6-fluoro-2-pyridyl]amino]-2-oxo-ethyl]-2-isopropyl-pyrazole-3-carboxamide]
solubility at 24 h [1]: 19 µg/mL (≈ 34.1 µM) | HLM Clapp [2]: <8 mL/min/kg

Cc1c(-c2ccc(NC(=O)[C@@H](NC(=O)c3ccnn3C(C)C)C(C3CC3)C3CC3)nc2F)cc(Cl)c[n+]1[O-] [Example 11, N-[(1S)-1-[[5-(5-chloro-2-methyl-1-oxido-pyridin-1-ium-3-yl)-6-fluoro-2-pyridyl]carbamoyl]-2,2-dicyclopropyl-ethyl]-2-isopropyl-pyrazole-3-carboxamide]
solubility at 24 h [1]: 6.5 µg/mL (≈ 12 µM) | HLM Clapp [2]: <8 mL/min/kg

Cc1c(-c2ccc(NC(=O)[C@@H](NC(=O)c3ccnn3C(C)C)C(C3CC3)C3CC3)nc2F)cc(F)c[n+]1[O-] [Example 2, N-[(1S)-1-(dicyclopropylmethyl)-2-[[6-fluoro-5-(5-fluoro-2-methyl-1-oxido-pyridin-1-ium-3-yl)-2-pyridyl]amino]-2-oxo-ethyl]-2-isopropyl-pyrazole-3-carboxamide]
solubility at 24 h [1]: 26 µg/mL (≈ 49.6 µM) | HLM Clapp [2]: <8 mL/min/kg

Cc1cc(-c2ccc(NC(=O)[C@@H](NC(=O)c3ccnn3C3CCC3)C(C3CC3)C3CC3)nc2F)c(C)[n+]([O-])c1 [Example 25, 2-cyclobutyl-N-[(1S)-1-(dicyclopropylmethyl)-2-[[5-(2,5-dimethyl-1-oxido-pyridin-1-ium-3-yl)-6-fluoro-2-pyridyl]amino]-2-oxo-ethyl]pyrazole-3-carboxamide]
HLM Clapp [2]: 250 mL/min/kg

CCOc1cc(-c2ccc(NC(=O)[C@@H](NC(=O)c3ccnn3C(C)C)C(C3CC3)C3CC3)nc2F)c(C)[n+]([O-])c1 [Example 10, N-[(1S)-1-(dicyclopropylmethyl)-2-[[5-(5-ethoxy-2-methyl-1-oxido-pyridin-1-ium-3-yl)-6-fluoro-2-pyridyl]amino]-2-oxo-ethyl]-2-isopropyl-pyrazole-3-carboxamide]
solubility at 24 h [1]: 9 µg/mL (≈ 16.3 µM) | HLM Clapp [2]: 22 mL/min/kg

Cc1cc(-c2ccc(NC(=O)[C@@H](NC(=O)c3ccnn3CC(F)F)C(C3CC3)C3CC3)nc2F)c(C)[n+]([O-])c1 [Example 24, N-[(1S)-1-(dicyclopropylmethyl)-2-[[5-(2,5-dimethyl-1-oxido-pyridin-1-ium-3-yl)-6-fluoro-2-pyridyl]amino]-2-oxo-ethyl]-2-(2,2-difluoroethyl)pyrazole-3-carboxamide]
HLM Clapp [2]: <8 mL/min/kg

Cc1cc(-c2ccc(NC(=O)[C@@H](NC(=O)c3ccnn3CC3CC3)C(C3CC3)C3CC3)nc2F)c(C)[n+]([O-])c1 [Example 29, 2-(cyclopropylmethyl)-N-[(1S)-1-(dicyclopropylmethyl)-2-[[5-(2,5-dimethyl-1-oxido-pyridin-1-ium-3-yl)-6-fluoro-2-pyridyl]amino]-2-oxo-ethyl]pyrazole-3-carboxamide]
HLM Clapp [2]: 8 mL/min/kg

CCCn1nccc1C(=O)N[C@H](C(=O)Nc1ccc(-c2cc(C)c[n+]([O-])c2C)c(F)n1)C(C1CC1)C1CC1 [Example 20, N-[(1S)-1-(dicyclopropylmethyl)-2-[[5-(2,5-dimethyl-1-oxido-pyridin-1-ium-3-yl)-6-fluoro-2-pyridyl]amino]-2-oxo-ethyl]-2-propyl-pyrazole-3-carboxamide]
solubility at 24 h [1]: 38 µg/mL (≈ 73 µM) | HLM Clapp [2]: 74 mL/min/kg

CC(C)n1nccc1C(=O)N[C@H](C(=O)Nc1ccc(-c2c[n+]([O-])ccc2C2CC2)c(F)n1)C(C1CC1)C1CC1 [Example 47, N-[(1S)-2,2-dicyclopropyl-1-[[5-(4-cyclopropyl-1-oxido-pyridin-1-ium-3-yl)-6-fluoro-2-pyridyl]carbamoyl]ethyl]-2-isopropyl-pyrazole-3-carboxamide]
HLM Clapp [2]: <8 mL/min/kg

Cc1cc(-c2ccc(NC(=O)[C@@H](NC(=O)c3ccnn3C3CC3)C(C3CC3)C3CC3)nc2F)c(C)[n+]([O-])c1 [Example 27, 2-cyclopropyl-N-[(1S)-1-(dicyclopropylmethyl)-2-[[5-(2,5-dimethyl-1-oxido-pyridin-1-ium-3-yl)-6-fluoro-2-pyridyl]amino]-2-oxo-ethyl]pyrazole-3-carboxamide]
HLM Clapp [2]: <8 mL/min/kg

Cc1c(-c2ccc(NC(=O)[C@@H](NC(=O)c3ccnn3C(C)C)C(C3CC3)C3CC3)nc2F)cc(OCF)c[n+]1[O-] [Example 9, N-[(1S)-1-(dicyclopropylmethyl)-2-[[6-fluoro-5-[5-(fluoromethoxy)-2-methyl-1-oxido-pyridin-1-ium-3-yl]-2-pyridyl]amino]-2-oxo-ethyl]-2-isopropyl-pyrazole-3-carboxamide]
solubility at 24 h [1]: 23 µg/mL (≈ 41.5 µM) | HLM Clapp [2]: <8 mL/min/kg

Cc1cc(-c2ccc(NC(=O)[C@@H](NC(=O)c3ccnn3C(C)C)C(C3CC3)C3CC3)nc2F)c(C2CC2)[n+]([O-])c1 [Example 13, N-[(1S)-2,2-dicyclopropyl-1-[[5-(2-cyclopropyl-5-methyl-1-oxido-pyridin-1-ium-3-yl)-6-fluoro-2-pyridyl]carbamoyl]ethyl]-2-isopropyl-pyrazole-3-carboxamide]
solubility at 24 h [1]: 26 µg/mL (≈ 47.6 µM) | HLM Clapp [2]: 14 mL/min/kg

Cc1c(-c2ccc(NC(=O)[C@@H](NC(=O)c3ccnn3C(C)C)C(C3CC3)C3CC3)nc2F)cc(C(F)F)c[n+]1[O-] [Example 49, N-[(1S)-1-(dicyclopropylmethyl)-2-[[5-[5-(difluoromethyl)-2-methyl-1-oxido-pyridin-1-ium-3-yl]-6-fluoro-2-pyridyl]amino]-2-oxo-ethyl]-2-isopropyl-pyrazole-3-carboxamide]
solubility at 24 h [1]: 18 µg/mL (≈ 32.3 µM) | HLM Clapp [2]: <8 mL/min/kg

CCc1cc[n+]([O-])cc1-c1ccc(NC(=O)[C@@H](NC(=O)c2ccnn2C(C)C)C(C2CC2)C2CC2)nc1F [Example 53, N-[(1S)-1-(dicyclopropylmethyl)-2-[[5-(4-ethyl-1-oxido-pyridin-1-ium-3-yl)-6-fluoro-2-pyridyl]amino]-2-oxo-ethyl]-2-isopropyl-pyrazole-3-carboxamide]
solubility at 24 h [1]: 39 µg/mL (≈ 74.9 µM) | HLM Clapp [2]: <8 mL/min/kg

Cc1cc(-c2ccc(NC(=O)[C@@H](NC(=O)c3ccnn3C(F)F)C(C3CC3)C3CC3)nc2F)c(C)[n+]([O-])c1 [Example 26, N-[(1S)-1-(dicyclopropylmethyl)-2-[[5-(2,5-dimethyl-1-oxido-pyridin-1-ium-3-yl)-6-fluoro-2-pyridyl]amino]-2-oxo-ethyl]-2-(difluoromethyl)pyrazole-3-carboxamide]
HLM Clapp [2]: <8 mL/min/kg

Cc1cc(-c2ccc(NC(=O)[C@@H](NC(=O)c3ccnn3CC(C)C)C(C3CC3)C3CC3)nc2F)c(C)[n+]([O-])c1 [Example 28, N-[(1S)-1-(dicyclopropylmethyl)-2-[[5-(2,5-dimethyl-1-oxido-pyridin-1-ium-3-yl)-6-fluoro-2-pyridyl]amino]-2-oxo-ethyl]-2-isobutyl-pyrazole-3-carboxamide]
HLM Clapp [2]: >750 mL/min/kg

Cc1cc(-c2ccc(NC(=O)[C@@H](NC(=O)c3ccnn3CC3CC(F)(F)C3)C(C3CC3)C3CC3)nc2F)c(C)[n+]([O-])c1 [Example 32, N-[(1S)-1-(dicyclopropylmethyl)-2-[[5-(2,5-dimethyl-1-oxido-pyridin-1-ium-3-yl)-6-fluoro-2-pyridyl]amino]-2-oxo-ethyl]-2-[(3,3-difluorocyclobutyl)methyl]pyrazole-3-carboxamide]
HLM Clapp [2]: 23 mL/min/kg

From US12065429B2, “Small molecule modulators of IL-17” (LEO Pharma A/S, priority 2022, dated 2024)
